Data from doi:10.1101/2023.04.01.534865v1 (biorxiv, 2023).

Target: T1, GST-OSBP(377-807) (Homo sapiens, UniProt P22059)
T1 sequence (P22059 377-807): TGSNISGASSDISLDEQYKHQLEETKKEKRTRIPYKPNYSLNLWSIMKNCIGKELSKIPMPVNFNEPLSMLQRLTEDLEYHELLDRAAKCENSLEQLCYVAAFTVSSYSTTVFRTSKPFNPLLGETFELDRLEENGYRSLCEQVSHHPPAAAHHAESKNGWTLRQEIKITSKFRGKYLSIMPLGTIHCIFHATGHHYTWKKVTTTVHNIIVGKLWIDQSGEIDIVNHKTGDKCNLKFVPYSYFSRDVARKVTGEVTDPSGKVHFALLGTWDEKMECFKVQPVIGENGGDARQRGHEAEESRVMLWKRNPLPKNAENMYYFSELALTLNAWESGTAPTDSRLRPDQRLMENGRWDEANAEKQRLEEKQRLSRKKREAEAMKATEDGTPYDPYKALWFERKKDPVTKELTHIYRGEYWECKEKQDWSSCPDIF
Test: competitive fluorescence polarization
Assay type: binding

Question: For C[C@H](CCC(=O)NCCCOCCCCOCCCNC(=O)OC(C)(C)C)[C@H]1CC[C@H]2[C@@H]3CC=C4C[C@@H](O)CC[C@]4(C)[C@H]3CC[C@]12C [C3_Boc, oxybipin-2], which IC50 is on record?
Answer: 0.074 µM

Question: How did the IC50 turn out when C[C@H](CCC(=O)NCCCOCCCCOCCCNC(=O)CC12CC3CC(CC(C3)C1)C2)[C@H]1CC[C@H]2[C@@H]3CC=C4C[C@@H](O)CC[C@]4(C)[C@H]3CC[C@]12C [C3_HyT, oxybipin-1] was run?
Answer: 0.142 µM
